For orientation: AUC(0-t) means exposure summed from dosing to a finite time, without extrapolation to infinity. For orientation: Cmax means the highest concentration seen after dosing. By Tmax is commonly meant the time from dosing to the highest level. The term half-life denotes how long it takes for the measured level to halve.

Structures are written as SMILES. Like-named read-outs stand apart in the source and are kept apart here.

The values below come from patent publication US20210267978A1, “NANOPARTICLE FORMULATIONS OF IKE AND METHODS OF USE THEREOF” (The Trustees of Columbia University in the City of New York, priority 2018, published 2021).

In data set [1] the test system is SUDHL6 xenograft tumor tissue. Description: Western blot of caspase-3 in tumor tissue from efficacy study. The format is in vivo, NCG mice. Particulars: treatment for 14 days. On the procedure: 10-25 mg tumor tissue was placed into a 1.5 mL Eppendorf microfuge tube, and the sample was placed on dry ice until use. 20 μL/mg ice cold RIPA buffer with cocktail protease inhibitor (Roche) was added. The tumor tissue was homogenized at speed 5 for 30 sec using Bead Ruptor 4. The sample was centrifuged at 4° C. at 1,600×g for 10 min. The sample was kept on ice and the supernatant used for analysis. Caspase-3 antibody which could recognize both full-length caspase-3 and cleaved caspase-3 was used. α-Tubulin antibody was used as the reference.
In general terms: In western blotting, separated proteins are transferred to a membrane and probed.

Data set [2] in a line: Pharmacokinetic analysis in NCG mice bearing SUDHL6 xenografts (plasma and tumor, LC-MS). The class given is in vivo. As to conditions: SUDHL6-xenograft NCG mice; for AUC(0-t) / Cmax / Tmax / half-life / concentration at 24 h: mouse; for AUC(0-t) / Cmax / Tmax / half-life / concentration at 24 h / Tlast: single dose 50 mg/kg IP; for concentration at 24 h: read-out: Clast. Here is the method:
IKE was dissolved in 5% DMSO/95% HBSS at pH 4 to create a 5 mg/mL solution or 3 mg/mL solution. 5% DMSO/95% HBSS at pH 4 was used as vehicle 1. IKE PEG-PLGA nanoparticles and unfunctionalized PEG-PLGA nanoparticles (without IKE) (vehicle 2) prepared with a NanoAssemblr were dialyzed with deionized water overnight, and the water was changed at least twice. Dialyzed IKE-PEG-PLGA nanoparticles and unfunctionalized PEG-PLGA nanoparticles were concentrated by Amicon Ultra-15 Centrifugal Filter Units to create a solution with 80 mg/mL PEG-PLGA nanoparticles. All above solutions were sterilized by filtering through a 0.2 μm syringe filter.
NCG mice 6-weeks of age were injected with 10 million SUDHL-6 cells subcutaneously. Visible tumors appeared after 2 weeks. Tumor size was measured by electronic caliper every 2 days and calculated using the formula: 0.5×length×width^2. After another 2 weeks, mice were randomly separated into group of 3 mice per cage with roughly tumor size (1200 mm^3). Mice were dosed at 50 mg/kg IKE, 22 mg/kg IKE, 22 mg/kg IKE PEG-PLGA nanoparticles (equal to 600 mg/kg PEG-PLGA) using IP at one time and samples were collected at 0, 1, 2, 3, 4, 6, and 24 h with three mice per time point. Mice were dosed with Vehicle 1 and Vehicle 2 (600 mg/kg PEG-PLGA) by IP and samples were collected at 24 h. Mice were euthanized using a CO2 gas chamber before xenograft dissection and cardio puncture. Plasma samples were collected and analyzed as described above. Tumors were dissected and divided into 6 segments, frozen on dry ice, and stored at −80° C. Before IKE extraction, tumor tissue samples were thawed at room temperature and weighed. A 2.5-fold ratio of volume of phosphate-buffered saline (PBS) (mL/g) was added to the sample and homogenized using Bead Ruptor 4 at speed 4 for 30 sec. The homogenization step was repeated until the samples were homogenized well (final weight/volume was 0.4 g/mL). 100 μL of homogenized tissue (equal to 40 mg) was added to a new microfuge tube, 900 μL of acetonitrile was added. The samples were mixed for at least 5 minutes by rotating on a shaker and were sonicated for at least 30 sec prior to centrifugation for 10 min at 4,000×g and 4° C. The supernatant was removed and dried on the GeneVac overnight on the HPLC setting. After drying, the samples were resuspended in 100 μL of methanol and analyzed on the LC-MS with each sample analyzed twice. Technical replicates were averaged. The concentration of IKE in the sample was determined by comparison against a standard curve of IKE in the range of 25 to 2,500 ng/mL. Pharmacodynamic analysis of ferroptosis biomarkers is described in the RT-qPCR, glutathione, immunofluorescence, and lipidomics sections below. Pharmacokinetics parameters of IKE were assessed using Prism fitted with Lognormal of one phase exponential decay.

The subject of data set [3] is SUDHL6 xenograft tumor tissue. Nature of the data set: TBARS measurement in mouse tumor tissue from efficacy study. The format is in vivo, NCG mice. Here is the method: NCG mice, 6-weeks old, were injected with 10 million SUDHLO-6 cells subcutaneously. The mice were treated after the tumor size reached 100 mm^3. Mice were separated randomly into treatment groups and dosed with 23 mg/kg IKE, 40 mg/kg IKE, 23 mg/kg IKE PEG-PLGA nanoparticles (equal to 700 mg/kg PEG-PLGA), vehicle 1 (based on volume), and vehicle 2 (700 mg/kg PEG-PLGA) once daily by IP for 14 days. Tumor volume was measured daily with electronic caliper and calculated using the formula: 0.5×length×width^2. 3 h after the final dosage, mice were euthanized with CO2 and tumor tissue was dissected, weighed, divided into 4-6 segments, frozen, and stored at −80° C. Tumor volume change was analyzed in Prism using one-way ANOVA. Tumor tissues were analyzed as described in the RT-qPCR, immunofluorescence, TBARS, and lipidomics sections below.
10-25 mg tumor tissue was placed into a 1.5 mL Eppendorf microfuge tube, and the sample was placed on dry ice until use. 20 μL/mg ice cold RIPA buffer with cocktail protease inhibitor (Roche) was added. The tumor tissue was homogenized at speed 5 for 30 sec using Bead Ruptor 4. The sample was centrifuged at 4° C. at 1,600×g for 10 min. The sample was kept on ice and the supernatant used for analysis. […] TBARS was measured using a TBARS Assay Kit (Cayman 700870) following the manufacture's protocol.

The next data set relates to SUDHL6 cells. Nature of the data set: C-11 BODIPY lipid peroxidation measurement (flow cytometry). The class given is cell-based. As to conditions: different concentrations of IKE. Here is the method: 0.20 million SUDHL-6 cells were seeded in sixc^− well plates and treated with DMSO, IKE, or Fer-1 at specific concentration. The final cell density of 0.05 million cells/mL. After 24 h, cells were harvested by centrifuging at 300×g for 5 min. Cells were resuspended in 500 μL HBSS containing 2 μM C11-BODIPY (BODIPY 581/591 C11) (Thermo Fisher Scientific, D3861) and incubated at 37° C. for 15 min. Cells were pelleted and resuspended in HBSS. Fluorescence intensity was measured on the FL1 channel with gating to record live cells only (gate constructed from DMSO treatment group). A minimum of 10,000 cells were analyzed per condition.
Background: A flow cytometer gives signals particle by particle.

In the case of `CC(C)Oc1ccc(C(=O)Cn2ccnc2)cc1-n1c(CN2CCN(C(=O)COc3ccc(Cl)cc3)CC2)nc2ccccc2c1=O` [IKE, Imidazole ketone erastin], the “cleaved-caspase 3 in tumor tissue (western blot)” value in data set [1] is reported as “no cleaved-caspase 3 increase”. Further, in data set [2] (single dose 50 mg/kg i.p.), the highest plasma concentration is 5.2 µg/mL and the highest tumor accumulation is 2.5 µg/mL. In data set [2] (plasma), the exposure AUC(0-t) stood at 10900 ng·h/mL, the concentration peaked (Cmax) at 5180 ng/mL, the Tmax worked out at 1.35 h and the half-life is 1.83 h. For the same compound, in data set [2] (plasma), the concentration at 24 h came out at 30 ng/mL and the Tlast is reported as 24 h. Besides, in data set [2] (tumor tissue), the AUC(0-t) stood at 9860 ng·h/mL, the peak level (Cmax) was 2520 ng/mL, the Tmax was 3.3 h and the half-life was 3.5 h. Besides, in data set [2] (tumor tissue), the concentration at 24 h amounted to 283 ng/mL and the Tlast is 24 h. In data set [3] (23 mg/kg daily for 14 days), the “MDA increase (TBARS assay, MDA-TBA adducts' fluorescence)” value amounted to 1.4 fold. Besides, the “MDA increase (TBARS assay, MDA-TBA adducts' fluorescence)” value in data set [3] (40 mg/kg daily for 14 days) worked out at 1.8 fold. Also, in the data set on SUDHL6 cells, the “lipid ROS (C11-BODIPY)” value was “dose-dependent increase in lipid ROS”.
